Laboratory results published in ChEMBL document CHEMBL1201862, “PubChem BioAssay data set” (2004).
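These data come from cells grown in 96-well plates and exposed to compound for 48 hours at five concentrations. GI50 = concentration required for 50% inhibition of growth.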 Activity calls are given as the source filed them. Rule as the data show it: active = GI50 up to about 1.1 µM and inactive = higher.

Tests used:
Experiment in all cases: DTP human tumour cell line panel, 48 h
[1] = tested on: 786-0
[2] = tested on: A498
[3] = tested on: A549
[4] = tested on: ACHN
[5] = tested on: CCRF-CEM
[6] = tested on: HCT-15
[7] = tested on: HOP-92
[8] = tested on: K562
[9] = tested on: KM12
[10] = tested on: MOLT-4
[11] = tested on: NCI-H23
[12] = tested on: SK-OV-3
[13] = tested on: SNB-75
[14] = tested on: SW-620
[15] = tested on: UACC-257
[16] = tested on: UO-31
[17] = tested on: OVCAR-3

| Structure (SMILES) | GI50 [1] | GI50 [2] | GI50 [3] | GI50 [4] | GI50 [5] | GI50 [6] | GI50 [7] | GI50 [8] | GI50 [9] | GI50 [10] | GI50 [11] | GI50 [12] | GI50 [13] | GI50 [14] | GI50 [15] | GI50 [16] | GI50 [17] |
| --- | --- | --- | --- | --- | --- | --- | --- | --- | --- | --- | --- | --- | --- | --- | --- | --- | --- |
| CN(C)c1nc(N(C)C)sc(=O)n1 | > 100 µM (inactive) | > 100 µM (inactive) | > 100 µM (inactive) | > 100 µM (inactive) | > 100 µM (inactive) | > 100 µM | > 100 µM (inactive) | > 100 µM (inactive) | > 100 µM (inactive) | > 100 µM (inactive) | > 100 µM (inactive) | > 100 µM (inactive) | > 100 µM (inactive) | > 100 µM (inactive) | > 100 µM (inactive) | > 100 µM (inactive) | – |
| N#CC(/C(CCCC(=O)Nc1cccc([N+](=O)[O-])c1)=N/NC(=O)c1cc2ccccc2cc1O)c1ccccc1 (stereo not given) | 24.2 µM (inactive) | 35.3 µM (inactive) | 47.3 µM (inactive) | 34.3 µM (inactive) | 6.1 µM (inactive) | 17.9 µM | 29.8 µM (inactive) | 17.7 µM (inactive) | 62.2 µM (inactive) | 14.6 µM (inactive) | 20 µM (inactive) | 61.8 µM (inactive) | > 100 µM (inactive) | 34.6 µM (inactive) | 24.4 µM (inactive) | 6.56 µM (inactive) | 25.8 µM (inactive) |
| CC(=O)C1=C(C)NC2C=CC=CN12 (stereo not given) | > 100 µM (inactive) | > 100 µM (inactive) | > 100 µM (inactive) | > 100 µM (inactive) | > 100 µM (inactive) | > 100 µM | > 100 µM (inactive) | > 100 µM (inactive) | > 100 µM (inactive) | > 100 µM (inactive) | > 100 µM (inactive) | > 100 µM (inactive) | > 100 µM (inactive) | > 100 µM (inactive) | > 100 µM (inactive) | > 100 µM (inactive) | > 100 µM (inactive) |
| O=C1C=C(O)c2nc(O)ccc2C1=O | > 100 µM (inactive) | > 100 µM (inactive) | > 100 µM (inactive) | > 100 µM (inactive) | > 100 µM (inactive) | > 100 µM | > 100 µM (inactive) | > 100 µM (inactive) | – | > 100 µM (inactive) | > 100 µM (inactive) | > 100 µM (inactive) | > 100 µM (inactive) | > 100 µM (inactive) | > 100 µM (inactive) | > 100 µM (inactive) | > 100 µM (inactive) |
| C#C[C@@]1(O)CCCC2=CC(=O)C[C@]21C | > 100 µM (inactive) | – | > 100 µM (inactive) | > 100 µM (inactive) | > 100 µM (inactive) | > 100 µM | > 100 µM (inactive) | > 100 µM (inactive) | > 100 µM (inactive) | > 100 µM (inactive) | > 100 µM (inactive) | > 100 µM (inactive) | – | > 100 µM (inactive) | > 100 µM (inactive) | > 100 µM (inactive) | > 100 µM (inactive) |
| CCS/C(=N\c1ccccc1)SC | > 100 µM (inactive) | – | > 100 µM (inactive) | > 100 µM (inactive) | > 100 µM (inactive) | > 100 µM | > 100 µM (inactive) | > 100 µM (inactive) | > 100 µM (inactive) | > 100 µM (inactive) | > 100 µM (inactive) | > 100 µM (inactive) | 51.8 µM (inactive) | > 100 µM (inactive) | > 100 µM (inactive) | > 100 µM (inactive) | > 100 µM (inactive) |
| O=C(OCc1nc2ccc(Br)cc2c(=O)n1-c1ccccc1)c1ccccc1O | 74.8 µM (inactive) | 58.3 µM (inactive) | 86.5 µM (inactive) | 70.5 µM (inactive) | 48.3 µM (inactive) | – | > 100 µM (inactive) | 54.7 µM (inactive) | > 100 µM (inactive) | 37.9 µM (inactive) | 37.3 µM (inactive) | > 100 µM (inactive) | 28.4 µM (inactive) | > 100 µM (inactive) | 61.5 µM (inactive) | 29.8 µM (inactive) | 2.32 µM (inactive) |
| O=C(NN1C(=O)C(Cl)C1c1ccc(O)cc1)c1ccccc1O (stereo not given) | 18.7 µM (inactive) | – | 22.4 µM (inactive) | 19.1 µM (inactive) | 7.11 µM (inactive) | 14.6 µM | – | 22.4 µM (inactive) | 14 µM (inactive) | 27.6 µM (inactive) | 22.2 µM (inactive) | 25.8 µM (inactive) | 34.8 µM (inactive) | – | 20.7 µM (inactive) | 15.6 µM (inactive) | 16.7 µM (inactive) |
| CCCN(CCC)C1=Nc2ccccc2-n2cnnc2C1 | > 100 µM (inactive) | – | > 100 µM (inactive) | > 100 µM (inactive) | > 100 µM (inactive) | > 100 µM | – | > 100 µM (inactive) | > 100 µM (inactive) | > 100 µM (inactive) | > 100 µM (inactive) | – | – | > 100 µM (inactive) | – | > 100 µM (inactive) | > 100 µM (inactive) |
| COc1cccc2ccc(C(=O)c3ccccc3)nc12 | > 100 µM (inactive) | – | > 100 µM (inactive) | > 100 µM (inactive) | 79.4 µM (inactive) | > 100 µM | – | > 100 µM (inactive) | > 100 µM (inactive) | > 100 µM (inactive) | > 100 µM (inactive) | – | > 100 µM (inactive) | > 100 µM (inactive) | – | 2.22 µM (inactive) | > 100 µM (inactive) |
| COC(=O)N/N=C/c1oc(-c2ccccc2)c(-c2ccccc2)c1[N+](=O)[O-] | > 100 µM (inactive) | – | > 100 µM (inactive) | > 100 µM (inactive) | – | > 100 µM | > 100 µM (inactive) | > 100 µM (inactive) | > 100 µM (inactive) | > 100 µM (inactive) | > 100 µM (inactive) | > 100 µM (inactive) | > 100 µM (inactive) | > 100 µM (inactive) | > 100 µM (inactive) | > 100 µM (inactive) | > 100 µM (inactive) |
| COc1ccc(CC#C/C=C/C(=O)NCC(C)C)cc1 | > 100 µM (inactive) | – | > 100 µM (inactive) | > 100 µM (inactive) | 74.1 µM (inactive) | > 100 µM | > 100 µM (inactive) | 79.3 µM (inactive) | > 100 µM (inactive) | > 100 µM (inactive) | > 100 µM (inactive) | > 100 µM (inactive) | 55 µM (inactive) | > 100 µM (inactive) | > 100 µM (inactive) | > 100 µM (inactive) | > 100 µM (inactive) |
| CCCC(C)NC1=C(NC(C)=O)C(=O)c2ccccc2C1=O (stereo not given) | > 100 µM (inactive) | – | > 100 µM (inactive) | > 100 µM (inactive) | > 100 µM (inactive) | > 100 µM | 47.9 µM (inactive) | > 100 µM (inactive) | > 100 µM (inactive) | > 100 µM (inactive) | > 100 µM (inactive) | > 100 µM (inactive) | > 100 µM (inactive) | > 100 µM (inactive) | > 100 µM (inactive) | > 100 µM (inactive) | > 100 µM (inactive) |
| CC(=O)Oc1ccc(O)c2c1CCCC2 | > 100 µM (inactive) | > 31.6 µM (inactive) | > 100 µM (inactive) | 15.2 µM (inactive) | 10.2 µM (inactive) | 13.4 µM | – | 22.2 µM (inactive) | > 100 µM (inactive) | 12.1 µM (inactive) | > 52.8 µM (inactive) | 46.7 µM (inactive) | > 100 µM (inactive) | 20.8 µM (inactive) | 39.9 µM (inactive) | > 45.5 µM (inactive) | 12.5 µM (inactive) |
| CC(=O)NCc1c(C(N)=O)ncn1Cc1ccccc1 | > 100 µM (inactive) | > 100 µM (inactive) | > 100 µM (inactive) | > 100 µM (inactive) | > 100 µM (inactive) | > 100 µM | > 100 µM (inactive) | > 100 µM (inactive) | – | > 100 µM (inactive) | > 100 µM (inactive) | > 100 µM (inactive) | > 100 µM (inactive) | > 100 µM (inactive) | > 100 µM (inactive) | – | > 100 µM (inactive) |
| O=C1c2ccccc2C(=O)N1C/C=N/NS(=O)(=O)c1ccc2ccccc2c1 | > 100 µM (inactive) | > 100 µM (inactive) | > 100 µM (inactive) | > 100 µM (inactive) | > 100 µM (inactive) | > 100 µM | – | > 100 µM (inactive) | > 100 µM (inactive) | > 100 µM (inactive) | > 100 µM (inactive) | > 100 µM (inactive) | > 100 µM (inactive) | > 100 µM (inactive) | > 100 µM (inactive) | > 100 µM (inactive) | > 100 µM (inactive) |
| O=c1c2ccccc2oc2nccnc12 | > 100 µM (inactive) | > 100 µM (inactive) | > 100 µM (inactive) | > 100 µM (inactive) | > 100 µM (inactive) | > 100 µM | – | > 100 µM (inactive) | > 100 µM (inactive) | > 100 µM (inactive) | > 100 µM (inactive) | > 100 µM (inactive) | > 100 µM (inactive) | > 100 µM (inactive) | > 100 µM (inactive) | > 100 µM (inactive) | > 100 µM (inactive) |
| COc1ccc(C(c2c(O)c3ccccc3n(-c3ccccc3)c2=O)c2c(O)c3ccccc3n(-c3ccccc3)c2=O)cc1 | 25.4 µM (inactive) | – | > 100 µM (inactive) | > 100 µM (inactive) | > 100 µM (inactive) | > 100 µM | 49.2 µM (inactive) | > 100 µM (inactive) | > 100 µM (inactive) | > 100 µM (inactive) | > 100 µM (inactive) | – | – | > 100 µM (inactive) | – | > 100 µM (inactive) | > 100 µM (inactive) |
